One data set deals with zebrafish embryos. Kind of data set: Phenotypes of live zebrafish embryos at 48 hpf after morpholino injection. Type of data set: in vivo. An excerpt:
(§1) To disrupt the MEC-17 gene in Tetrahymena, we used homologous DNA recombination with a fragment carrying the neo4 marker that replaced the coding region. MEC-17 was overexpressed in Tetrahymena using the MTT1 cadmium-dependent promoter. In C. elegans, MEC-12-K40, MEC-12-Q40, and MEC-12-R40 transgenes were introduced into a single site on chromosome II in the EG4322 strain. Animals homozygous for a MEC-12 transgene and homozygous for the mec-12(e1607) allele were obtained by standard crosses. All touch sensation assays in C. elegans were done using blind scoring. To deplete human MEC-17 (C6Orf134) mRNA in Hela cells, we introduced MEC-17-specific siRNAs (ON-TARGETplus pool, Dharmacon) using Oligofectamine (Invitrogen). To knockdown mec17 expression in zebrafish, MOs designed to target the MEC-17 mRNA (Open Biosystems) were injected into early embryos. ATG-MEC17 MO targets the translation initiation site of mec17 mRNA. SP-MEC17 MO targets the exon3/intron3-4 splice junction, and is expected to result in an aberrant splicing isoform of exon2 to exon 4, producing a frameshift mutation and associated protein truncation. As a negative control, we injected MO with a random sequence (oligo-25N, Gene Tools) or a 5 bp mismatch to the ATG-MEC17 MO. Live embryos were scored for phenotypes at 48 hpf. To produce a recombinant MEC-17 protein, the cDNA sequence of the murine MEC-17 (BF135007, Open Biosystems) was subcloned into pGEX-3× plasmid (GE Healthcare), expressed in BL21 E. coli cells as a GST fusion and purified using GST-Bind kit (Novagen). The in vitro acetylation assays were performed in 50 mM Tris-HCl pH 8.0, 10 mM glycerol, 0.1 mM EDTA, with purified Tetrahymena MEC-17-KO axonemes or tubulin (purified using DEAE chromatography), recombinant GST-MmMEC-17 enzyme and 10 μM acetyl-CoA. The reaction was detected by western blotting using anti-acetyl-K antibodies.
ATG-MEC17 targets the translation initiation site of MEC-17 mRNA. SP-MEC17 MO targets the exon3/intron3-4 splice junction, and is expected to result in an aberrantly spliced isoform in which exon2 is joined to exon 4. The predicted transcript contains a frameshift mutation and encodes a nonsense protein. As a negative control we injected MO with a random sequence (oligo-25N, Gene Tools) or a 5 bp mismatch to the ATG-MEC17 MO (5′-CATTgAcGTCcTAAGGcAAATgCAT-3′; SEQ ID NO:9). Live embryos were scored for phenotypes at 48 hpf, or fixed processed for immunofluorescence as described (Wloga et al., 2009 Dev Cell 16:867-876). The antibodies were used in the following concentrations: 6-11 B-1 mAb (1:1000), Znp-1 anti-synaptotagmin 1 mAb (1:100). After incubation with secondary antibodies (Zymed) overnight at 4° C. (1:500) embryos were mounted in 100 mg/ml of DABCO (Sigma-Aldrich) in PBS and viewed in a Leica TCS SP confocal microscope. Live zebrafish morphants shown in videos S1-S3 were recorded using on the Zeiss Stemi SV11 Apo microscope and a SPOT FLEX camera (Diagnostic Instruments Inc.) at 12 frames per second.

Another data set has as its system mec17 mRNA. Kind of data set: RT-PCR of mec17 mRNA in morpholino-injected embryos. The format is in vivo, zebrafish. The note with it: RT-PCR exon 1 to exon 5. The protocol: Total cDNA was made using randomly-primed mRNA isolated from either control (WT) or embryos injected with 5 bp mismatch MO (MIS), ATG-MO (ATG), or splice-site MO (SP), and amplified using either primers corresponding to the coding sequence of the β-actin gene (top panel) or primers that correspond to the sequence of mec17 between exon 1 and exon 5 (bottom panel). As controls, amplifications were performed on samples that lacked reverse transcriptase (−RT). Note that the β-actin gene primers gave a robust product of the expected size (100 bp) for all +RT samples (top).
For RT-PCR, mRNA was isolated from 70 embryos 24 hpf using TRIzol reagent (Invitrogen, Carslbad, Calif.), and total cDNA was synthesized using iScript cDNA synthesis kit (Bio-Rad Laboratories, Hercules, Calif.). The sequences of primers used to amplify the mec17 cDNA were: MEC17EX1F 5′-[…]-3′ (SEQ ID NO:10) and MEC17EX5R2 5′-[…]-3′ (SEQ ID NO:11). The forward primer binds to exon 1 and the reverse primer binds to exon 5 (the splice blocking morpholino binds to the junction between exon 3 and the intron 3-4). For the control amplification of β-actin cDNA, we used the following primers: 5′-[…]-3′ (SEQ ID NO:12) and 5′-[…]-3′ (SEQ ID NO:13).

For a further data set, the target named is T1, HDAC6 (Homo sapiens, UniProt Q9UBN7).
T1 sequence (Q9UBN7 1-1215): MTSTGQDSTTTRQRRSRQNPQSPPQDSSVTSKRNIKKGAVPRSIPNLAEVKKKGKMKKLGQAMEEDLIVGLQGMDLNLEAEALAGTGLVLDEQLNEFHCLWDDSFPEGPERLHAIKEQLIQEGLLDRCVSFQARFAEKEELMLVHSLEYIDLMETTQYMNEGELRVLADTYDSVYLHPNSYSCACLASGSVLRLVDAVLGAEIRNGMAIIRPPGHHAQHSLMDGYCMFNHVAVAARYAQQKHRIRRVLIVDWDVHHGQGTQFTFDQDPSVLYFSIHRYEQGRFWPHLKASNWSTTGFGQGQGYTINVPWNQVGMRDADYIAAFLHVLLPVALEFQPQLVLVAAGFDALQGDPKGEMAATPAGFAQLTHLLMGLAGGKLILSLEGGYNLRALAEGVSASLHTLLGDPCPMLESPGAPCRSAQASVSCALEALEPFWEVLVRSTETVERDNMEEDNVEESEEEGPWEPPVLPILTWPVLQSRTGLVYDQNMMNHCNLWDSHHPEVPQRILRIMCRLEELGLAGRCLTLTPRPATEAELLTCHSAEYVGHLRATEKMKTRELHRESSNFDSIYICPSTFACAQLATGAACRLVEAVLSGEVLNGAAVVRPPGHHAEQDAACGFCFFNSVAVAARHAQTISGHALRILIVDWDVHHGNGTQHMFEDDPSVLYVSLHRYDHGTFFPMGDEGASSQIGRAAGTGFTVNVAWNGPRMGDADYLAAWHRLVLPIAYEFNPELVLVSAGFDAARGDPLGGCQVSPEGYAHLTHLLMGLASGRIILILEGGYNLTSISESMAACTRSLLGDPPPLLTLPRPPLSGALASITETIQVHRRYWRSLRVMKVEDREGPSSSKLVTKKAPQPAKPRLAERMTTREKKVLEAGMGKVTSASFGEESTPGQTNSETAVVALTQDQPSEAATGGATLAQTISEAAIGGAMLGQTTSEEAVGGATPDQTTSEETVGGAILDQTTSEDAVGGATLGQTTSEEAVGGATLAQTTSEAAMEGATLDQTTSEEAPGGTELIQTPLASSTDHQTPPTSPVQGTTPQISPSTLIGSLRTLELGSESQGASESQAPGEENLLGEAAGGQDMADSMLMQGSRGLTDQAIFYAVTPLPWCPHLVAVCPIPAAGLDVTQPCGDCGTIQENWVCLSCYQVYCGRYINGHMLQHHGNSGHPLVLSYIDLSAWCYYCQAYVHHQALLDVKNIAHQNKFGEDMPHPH
The following applies: cited from earlier work.

A further data set deals with GST-MmMEC-17. The data set is described as follows: In vitro tubulin acetyltransferase assay: effect of added agents on MEC-17 activity. The format is biochemical, murine. The following applies: purified MEC17-KO tubulin or axonemes, acetyl-CoA.
Excerpt: as §1, with “To produce a recombinant MEC-17 protein, the cDNA sequence of the murine MEC-17 (BF135007, Open Biosystems) was subcloned into pGEX-3× plasmid (GE Healthcare), expressed in BL21 E. coli cells as a GST fusion and purified using GST-Bind kit (Novagen). The in vitro acetylation assays were performed in 50 mM Tris-HCl pH 8.0, 10 mM glycerol, 0.1 mM EDTA, with purified Tetrahymena MEC-17-KO axonemes or tubulin (purified using DEAE chromatography), recombinant GST-MmMEC-17 enzyme and 10 μM acetyl-CoA.” left out, “antibodies. […]” for “antibodies.”

The subject of data set [1] is MEC-17-KO Tetrahymena cells. Kind of data set: Response of Tetrahymena strains to microtubule drugs (growth, axonemes). Type of data set: cell-based. The following applies: MEC-17-KO vs wild type. The protocol:
Cells were suspended at 10^5 cell/ml in SPP medium and incubated with the drug for 22 hr at 30° C. and the cell density was determined.

Consider 6 compounds from patent publication US20140248635A1, “ALPHA-TUBULIN […]” (University of Georgia Research Foundation, Inc., priority 2010, published 2014).

“MEC-17 SP MP: morpholino 5′-AGAGAAAGCTATTTTACCCGTTCTG-3′ (SEQ ID NO:8); targets the exon3/intron3-4 splice junction of mec17 (all phosphorodiamidate morpholino (PMO))”: in the data set with zebrafish embryos (Table 1, 1 ng MO, 48 hpf), the “Edema of the heart (frequency of phenotype)” value (“Edema of the heart” for short) is given as 13.2%, the “Hydrocephaly (frequency of phenotype)” value is 33%, the “Lethality (frequency of phenotype)” value is on record as 28% and the “Paralyzed (frequency of phenotype)” value stood at 15%. In the data set on zebrafish embryos (Table 1, 1 ng MO, 48 hpf), the “Reduced mobility (frequency of phenotype)” value amounted to 23.5%, the “Short body axis (frequency of phenotype)” value is listed as 41.5% and the “Small head/eyes (frequency of phenotype)” value is 47.1%. In addition, in the data set with mec17 mRNA, the “levels of mec17 mRNA” value is “severe reduction”.

On to `O=C(CCCCCCC(=O)Nc1ccc([C@H]2O[C@@H](CSc3nc(-c4ccccc4)c(-c4ccccc4)o3)C[C@@H](c3ccc(CO)cc3)O2)cc1)NO` [tubacin], for which the “inhibition of HDAC6” value at HDAC6 is “a specific inhibitor”.

Take `Nc1nc2c(ncn2[C@@H]2O[C@H](COP(=O)(O)OP(=O)(O)OP(=O)(O)O)[C@@H](O)[C@H]2O)c(=O)[nH]1` [GTP]: the “effect on MEC-17 acetylation activity” value in the data set with GST-MmMEC-17 is given as “stimulated”.

As to “ATG MIS MO: negative control MO, 5 bp mismatch to the ATG-MEC17 MO, 5′-CATTgAcGTCcTAAGGcAAATgCAT-3′ (SEQ ID NO:9) (CATTGACGTCCTAAGGCAAATGCAT; all phosphorodiamidate morpholino (PMO)) [reference compound]”, in the data set with zebrafish embryos (Table 2, 1 ng MO, 48 hpf), the “Edema of the heart” value was determined as 3.8%, the “Hydrocephaly (frequency of phenotype)” value stood at 0%, the “Lethality (frequency of phenotype)” value is recorded as 2.5% and the “Mobility: reduced mobility” value was 2.5% reduced mobility. In the data set with zebrafish embryos (Table 2, 1 ng MO, 48 hpf), the “Short body axis (frequency of phenotype)” value was found to be 5.1%, the “Small head/eyes: small eyes” value is reported as 1.2% small eyes and the “Small head/eyes: small heads” value stood at 6.4% small heads. In addition, the “gross embryo phenotype / developmental defects” value in the data set with zebrafish embryos (injected embryos) is recorded as “appeared normal”.

Consider “MEC-17 ATG MO: morpholino 5′-CATTCAGGTCGTAAGGGAAATCCAT-3′ (SEQ ID NO:7); targets the translation initiation site of MEC-17 mRNA (all phosphorodiamidate morpholino (PMO))”, for which, in the data set on zebrafish embryos (Table 1, 1 ng MO, 48 hpf), the “Edema of the heart” value was 15.4%, the “Hydrocephaly (frequency of phenotype)” value was determined as 15%, the “Lethality (frequency of phenotype)” value is recorded as 7% and the “Paralyzed (frequency of phenotype)” value came out at 15.4%. Further, in the data set with zebrafish embryos (Table 1, 1 ng MO, 48 hpf), the “Reduced mobility (frequency of phenotype)” value is listed as 41.6%, the “Short body axis (frequency of phenotype)” value came to 35.7% and the “Small head/eyes (frequency of phenotype)” value is on record as 28.5%. Moreover, in the data set on zebrafish embryos (Table 2, 1 ng MO, 48 hpf), the “Edema of the heart” value came out at 7.9%, the “Hydrocephaly (frequency of phenotype)” value is given as 13.8%, the “Lethality (frequency of phenotype)” value is given as 3.7% and the “Mobility: paralyzed” value is listed as 10.1% paralyzed. Also, in the data set with zebrafish embryos (Table 2, 1 ng MO, 48 hpf), the “Mobility: reduced mobility” value was found to be 17.5% reduced mobility, the “Short body axis (frequency of phenotype)” value is reported as 27.1%, the “Small head/eyes: small eyes” value turned out to be 74.4% small eyes and the “Small head/eyes: small heads” value was 79.2% small heads.

For `CC(=O)O[C@H]1C(=O)[C@@]2(C)[C@H]([C@H](OC(=O)c3ccccc3)[C@]3(O)C[C@H](OC(=O)[C@H](O)[C@@H](NC(=O)c4ccccc4)c4ccccc4)C(C)=C1C3(C)C)[C@]1(OC(C)=O)CO[C@@H]1C[C@@H]2O` [Paclitaxel, paclitaxel, reference compound], in the data set with GST-MmMEC-17, the “effect on MEC-17 acetylation activity” value is “stimulated”. The “growth of MEC-17-KO cells in medium with drug, compared with wild type” value in data set [1] was “grew faster than wild-type cells”.
